This is an account of results in patent US10344025B2, “GLS1 inhibitors for treating disease” (Board of Regents, The University of Texas System, priority 2014, dated 2019).

A value given as a limit tells only on which side of the number the result lay.

The subject of one test is A549 cells. The experiment in a line: Proliferation Assay (A549 viability, Cell Titer Fluor, 72 hours). It is filed as cell-based. The following applies: Homo sapiens, A549, 72 h. In a few lines:
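Cell Titer Fluor fluorescence after 72 h compound treatment (0.5% DMSO, 37 °C, 5% CO2) of A549 cells plated 24 h earlier at 1000/well. Four-parameter logistic fitting gave IC50.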

In test [1] the target is purified recombinant human GAC (GLS1) (Homo sapiens (Human), UniProt O94925). The test is described as follows: GLS1 Enzymatic Activity Assay (dual-coupled enzymatic assay, resorufin/Amplex UltraRed readout).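 Also: glutamate from GAC coupled via glutamate oxidase and peroxidase to resorufin, read as fluorescence (ex 530, em 590 nm) kinetically or at 20 min, four-parameter logistic IC50 fit.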 The format is biochemical.
Sequence of purified recombinant human GAC (GLS1) (O94925 other isoform, or with tags, fused parts or gaps): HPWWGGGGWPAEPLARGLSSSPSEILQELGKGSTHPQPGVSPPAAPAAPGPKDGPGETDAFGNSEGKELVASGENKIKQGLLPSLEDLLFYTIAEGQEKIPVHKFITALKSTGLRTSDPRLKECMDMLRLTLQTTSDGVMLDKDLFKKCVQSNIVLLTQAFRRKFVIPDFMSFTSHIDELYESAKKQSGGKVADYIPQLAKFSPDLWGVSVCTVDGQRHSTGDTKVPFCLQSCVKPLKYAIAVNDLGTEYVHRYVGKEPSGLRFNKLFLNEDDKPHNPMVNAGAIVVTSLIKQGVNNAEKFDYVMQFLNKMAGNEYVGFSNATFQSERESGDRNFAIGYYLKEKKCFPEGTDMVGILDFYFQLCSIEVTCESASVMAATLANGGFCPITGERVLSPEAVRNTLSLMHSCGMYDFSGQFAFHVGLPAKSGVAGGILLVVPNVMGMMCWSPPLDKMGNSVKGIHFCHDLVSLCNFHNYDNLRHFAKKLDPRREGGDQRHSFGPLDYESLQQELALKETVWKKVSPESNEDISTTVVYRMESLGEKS

The molecule `Cc1ccc(CNC(=O)c2cn(CCC(F)Cn3cc(C(=O)NCc4cccc(OC(F)(F)F)c4)nn3)nn2)cn1` (stereo not drawn) [Example 434, 1-[2-fluoro-4-(4-{[(6-methylpyridin-3-yl)methyl]carbamoyl}-1H-1,2,3-triazol-1-yl)butyl]-N-{[3-(trifluoromethoxy)phenyl]methyl}-1H-1,2,3-triazole-4-carboxamide] showed an EC50 in the test with A549 cells below 100 nM. The IC50 in test [1] was below 100 nM.

In turn, `O=C(NCc1cccc(OC(F)(F)F)c1)c1cn(CCC(F)Cn2cc(C(=O)NCc3ccc(C(F)(F)F)nc3)nn2)nn1` (stereo not drawn) [Example 435, 1-{2-fluoro-4-[4-({[3-(trifluoromethoxy)phenyl]methyl}carbamoyl)-1H-1,2,3-triazol-1-yl]butyl}-N-{[6-(trifluoromethyl)pyridin-3-yl]methyl}-1H-1,2,3-triazole-4-carboxamide] came in with an EC50 in the test on A549 cells below 100 nM. Also, the IC50 in test [1] is below 100 nM.

`O=C(NCc1cccc(OC(F)(F)F)c1)c1cn(CCC(F)Cn2cc(C(=O)NCc3cccc(C(F)(F)F)n3)nn2)nn1` (stereo not drawn) [Example 436, 1-{2-fluoro-4-[4-({[3-(trifluoromethoxy)phenyl]methyl}carbamoyl)-1H-1,2,3-triazol-1-yl]butyl}-N-{[6-(trifluoromethyl)pyridin-2-yl]methyl}-1H-1,2,3-triazole-4-carboxamide]: the EC50 in the test with A549 cells is below 100 nM. Further, in test [1], the IC50 was below 100 nM.

In the case of `O=C(NCc1ccc(C(F)(F)F)nc1)c1cn(CCC(F)Cn2cc(C(=O)NCc3cccc(OC(F)(F)F)c3)nn2)nn1` (stereo not drawn) [Example 437, 1-{3-fluoro-4-[4-({[3-(trifluoromethoxy)phenyl]methyl}carbamoyl)-1H-1,2,3-triazol-1-yl]butyl}-N-{[6-(trifluoromethyl)pyridin-3-yl]methyl}-1H-1,2,3-triazole-4-carboxamide], the EC50 in the test with A549 cells was below 100 nM. Further, the half-inhibitory concentration (IC50) in test [1] was below 100 nM.

In turn, `O=C(NCc1cccc(C(F)(F)F)n1)c1cn(CCC(F)Cn2cc(C(=O)NCc3cccc(OC(F)(F)F)c3)nn2)nn1` (stereo not drawn) [Example 438, 1-{3-fluoro-4-[4-({[3-(trifluoromethoxy)phenyl]methyl}carbamoyl)-1H-1,2,3-triazol-1-yl]butyl}-N-{[6-(trifluoromethyl)pyridin-2-yl]methyl}-1H-1,2,3-triazole-4-carboxamide] showed an EC50 with A549 cells below 100 nM. Moreover, the IC50 in test [1] was below 100 nM.

In the test on A549 cells, `O=C(NCc1cc(C(F)(F)F)ccn1)c1cn(CCC(F)Cn2cc(C(=O)NCc3cccc(OC(F)(F)F)c3)nn2)nn1` (stereo not drawn) [Example 439, 1-{3-fluoro-4-[4-({[3-(trifluoromethoxy)phenyl]methyl}carbamoyl)-1H-1,2,3-triazol-1-yl]butyl}-N-{[4-(trifluoromethyl)pyridin-2-yl]methyl}-1H-1,2,3-triazole-4-carboxamide] came in with an EC50 below 100 nM. Further, in test [1], the IC50 is below 100 nM.

`O=C(NCc1ncccc1F)c1cn(CCC(F)Cn2cc(C(=O)NCc3cccc(OC(F)(F)F)c3)nn2)nn1` (stereo not drawn) [Example 440, 1-{3-fluoro-4-[4-({[3-(trifluoromethoxy)phenyl]methyl}carbamoyl)-1H-1,2,3-triazol-1-yl]butyl}-N-[(3-fluoropyridin-2-yl)methyl]-1H-1,2,3-triazole-4-carboxamide] came in with an EC50 in the test with A549 cells of 100 to 500 nM. Moreover, in test [1], the IC50 was below 100 nM.

With `O=C(NCc1ccc(C(F)(F)F)cn1)c1cn(CCC(F)Cn2cc(C(=O)NCc3cc(OC(F)(F)F)ccc3F)nn2)nn1` (stereo not drawn) [Example 441, 1-{2-fluoro-4-[4-({[5-(trifluoromethyl)pyridin-2-yl]methyl}carbamoyl)-1H-1,2,3-triazol-1-yl]butyl}-N-{[2-fluoro-5-(trifluoromethoxy)phenyl]methyl}-1H-1,2,3-triazole-4-carboxamide], the EC50 in the test on A549 cells was below 100 nM. For the same molecule, the IC50 in test [1] was below 100 nM.

On to `Cc1ccc(CNC(=O)c2nnc(CCC(F)Cn3cc(C(=O)NCc4cccc(OC(F)(F)F)c4)nn3)s2)cn1` (stereo not drawn) [Example 442, 5-{3-fluoro-4-[4-({[3-(trifluoromethoxy)phenyl]methyl}carbamoyl)-1H-1,2,3-triazol-1-yl]butyl}-N-[(6-methylpyridin-3-yl)methyl]-1,3,4-thiadiazole-2-carboxamide], for which the EC50 with A549 cells was below 100 nM. The IC50 in test [1] was below 100 nM.

For `Cc1ccc(CNC(=O)c2nnc(CCC(F)Cn3cc(C(=O)NCc4cc(OC(F)(F)F)ccc4F)nn3)s2)cn1` (stereo not drawn) [Example 443, 5-{3-fluoro-4-[4-({[2-fluoro-5-(trifluoromethoxy)phenyl]methyl}carbamoyl)-1H-1,2,3-triazol-1-yl]butyl}-N-[(6-methylpyridin-3-yl)methyl]-1,3,4-thiadiazole-2-carboxamide], the EC50 in the test on A549 cells was below 100 nM. The IC50 in test [1] was below 100 nM.

The molecule `O=C(NCc1ncccc1F)c1cn(CCC(F)Cn2cc(C(=O)NCc3cc(OC(F)(F)F)ccc3F)nn2)nn1` (stereo not drawn) [Example 444, 1-{3-fluoro-4-[4-({[2-fluoro-5-(trifluoromethoxy)phenyl]methyl}carbamoyl)-1H-1,2,3-triazol-1-yl]butyl}-N-[(3-fluoropyridin-2-yl)methyl]-1H-1,2,3-triazole-4-carboxamide] came in with an EC50 with A549 cells below 100 nM. In addition, the IC50 in test [1] was below 100 nM.

The molecule `O=C(NCc1ccc(C(F)(F)F)cn1)c1cn(CC(F)CCc2nnc(C(=O)NCc3cccc(OC(F)(F)F)c3)s2)nn1` (stereo not drawn) [Example 445, 5-{3-fluoro-4-[4-({[5-(trifluoromethyl)pyridin-2-yl]methyl}carbamoyl)-1H-1,2,3-triazol-1-yl]butyl}-N-{[3-(trifluoromethoxy)phenyl]methyl}-1,3,4-thiadiazole-2-carboxamide] had an EC50 in the test on A549 cells below 100 nM. Moreover, the IC50 in test [1] was below 100 nM.

As to `O=C(NCc1cc(C(F)(F)F)ccn1)c1cn(CC(F)CCc2nnc(C(=O)NCc3cccc(OC(F)(F)F)c3)s2)nn1` (stereo not drawn) [Example 446, 5-{3-fluoro-4-[4-({[4-(trifluoromethyl)pyridin-2-yl]methyl}carbamoyl)-1H-1,2,3-triazol-1-yl]butyl}-N-{[3-(trifluoromethoxy)phenyl]methyl}-1,3,4-thiadiazole-2-carboxamide], the concentration for a half-maximal effect (EC50) in the test with A549 cells is below 100 nM. The IC50 in test [1] is below 100 nM.

Molecule `Cc1ccc(CNC(=O)c2cn(CC(F)CCc3nnc(C(=O)NCc4cc(OC(F)(F)F)ccc4F)s3)nn2)cn1` (stereo not drawn) [Example 447, 5-[3-fluoro-4-(4-{[(6-methylpyridin-3-yl)methyl]carbamoyl}-1H-1,2,3-triazol-1-yl)butyl]-N-{[2-fluoro-5-(trifluoromethoxy)phenyl]methyl}-1,3,4-thiadiazole-2-carboxamide] gave an EC50 in the test on A549 cells below 100 nM. Besides, in test [1], the IC50 is below 100 nM.

In turn, `O=C(NCc1ccc(C(F)(F)F)cn1)c1cn(CC(F)CCc2nnc(C(=O)NCc3cc(OC(F)(F)F)ccc3F)s2)nn1` (stereo not drawn) [Example 448, 5-{3-fluoro-4-[4-({[5-(trifluoromethyl)pyridin-2-yl]methyl}carbamoyl)-1H-1,2,3-triazol-1-yl]butyl}-N-{[2-fluoro-5-(trifluoromethoxy)phenyl]methyl}-1,3,4-thiadiazole-2-carboxamide] had an EC50 with A549 cells below 100 nM. Further, in test [1], the IC50 is below 100 nM.

With `O=C(NCc1cc(C(F)(F)F)ccn1)c1cn(CC(F)CCc2nnc(C(=O)NCc3cc(OC(F)(F)F)ccc3F)s2)nn1` (stereo not drawn) [Example 449, 5-{3-fluoro-4-[4-({[4-(trifluoromethyl)pyridin-2-yl]methyl}carbamoyl)-1H-1,2,3-triazol-1-yl]butyl}-N-{[2-fluoro-5-(trifluoromethoxy)phenyl]methyl}-1,3,4-thiadiazole-2-carboxamide], the EC50 with A549 cells is below 100 nM. Further, the IC50 in test [1] was below 100 nM.

The molecule `O=C(NCc1cc(C(F)(F)F)ccn1)c1cn(CCC(F)Cn2cc(C(=O)NCc3ccccc3)nn2)nn1` (stereo not drawn) [Example 450, N-benzyl-1-{2-fluoro-4-[4-({[4-(trifluoromethyl)pyridin-2-yl]methyl}carbamoyl)-1H-1,2,3-triazol-1-yl]butyl}-1H-1,2,3-triazole-4-carboxamide] showed an EC50 in the test with A549 cells of 100 to 500 nM. Besides, the IC50 in test [1] was below 100 nM.

The molecule `O=C(NCc1cc(OC(F)(F)F)ccc1F)c1cn(CC(F)CCc2nnc(C(=O)NCc3cc(C(F)(F)F)ccn3)s2)nn1` (stereo not drawn) [Example 451, 5-{3-fluoro-4-[4-({[2-fluoro-5-(trifluoromethoxy)phenyl]methyl}carbamoyl)-1H-1,2,3-triazol-1-yl]butyl}-N-{[4-(trifluoromethyl)pyridin-2-yl]methyl}-1,3,4-thiadiazole-2-carboxamide] had an EC50 in the test on A549 cells below 100 nM. Moreover, in test [1], the IC50 is below 100 nM.

For the molecule `O=C(NCc1cc(OC(F)(F)F)ccc1F)c1cn(CCC(F)Cn2cc(C(=O)N[C@H](CO)c3ccccc3)nn2)nn1` (stereo partly drawn) [Example 452, 1-{2-fluoro-4-[4-({[2-fluoro-5-(trifluoromethoxy)phenyl]methyl}carbamoyl)-1H-1,2,3-triazol-1-yl]butyl}-N-[(1S)-2-hydroxy-1-phenylethyl]-1H-1,2,3-triazole-4-carboxamide], the EC50 with A549 cells lay within 100 to 500 nM. In addition, the IC50 in test [1] is below 100 nM.

For the molecule `O=C(NCc1cc(OC(F)(F)F)ccc1F)c1cn(CCC(F)Cn2cc(C(=O)N[C@@H](CO)c3ccccc3)nn2)nn1` (stereo partly drawn) [Example 453, 1-{2-fluoro-4-[4-({[2-fluoro-5-(trifluoromethoxy)phenyl]methyl}carbamoyl)-1H-1,2,3-triazol-1-yl]butyl}-N-[(1R)-2-hydroxy-1-phenylethyl]-1H-1,2,3-triazole-4-carboxamide], the EC50 with A549 cells lay within 100 to 500 nM. In addition, the IC50 in test [1] is below 100 nM.

Molecule `O=C(NCc1ccccc1F)c1cn(CCC(F)Cn2cc(C(=O)NCc3cc(C(F)(F)F)ccn3)nn2)nn1` (stereo not drawn) [Example 454, 1-[2-fluoro-4-(4-{[(2-fluorophenyl)methyl]carbamoyl}-1H-1,2,3-triazol-1-yl)butyl]-N-{[4-(trifluoromethyl)pyridin-2-yl]methyl}-1H-1,2,3-triazole-4-carboxamide] came in with an EC50 with A549 cells of 100 to 500 nM. Also, the IC50 in test [1] was below 100 nM.

A word on the EC50: it is the concentration giving half of the maximal effect. A low value points to greater potency. In general, IC50 refers to the concentration that inhibits the measured activity by half.
